Measured values reported in patent publication US6534523B1, “Hepatitis C inhibitor tri-peptides” (Boehringer Ingelheim (Canada) Ltd., priority 1998, dated 2003).

biological target: HCV NS3 protease (UniProt P26663); type: biochemical, HCV genotype 1b; set-up: rows headed: IC50 (μM); IC50 (μM); settings: Table 3
Description: Recombinant HCV NS3 Protease/NS4A Cofactor Peptide Radiometric Assay
The enzyme was cloned, expressed and prepared according to the protocol described in Example 36. The enzyme was stored at −80° C., thawed on ice and diluted just prior to use in the assay buffer containing the NS4A cofactor peptide.
The substrate used for the NS3 protease/NS4A cofactor peptide radiometric assay, DDIVPC-SMSYTW, is cleaved between the cysteine and the serine residues by the enzyme. The sequence DDIVPC-SMSYTW corresponds to the NS5A/NS5B natural cleavage site in which the cysteine residue in P2 has been substituted for a proline. […] (molar ratio enzyme:cofactor 1:100) in the absence or presence of inhibitors. The separation of substrate from products is performed by adding avidin-coated agarose beads to the assay mixture followed by filtration. The amount of SMS[^125I-Y]TW product found in the filtrate allows for the calculation of the percentage of substrate conversion and of the percentage of inhibition.
The enzymatic reaction was initiated by the addition of the enzyme/NS4A peptide solution and the assay mixture was incubated for 40 min at 23° C. under gentle agitation. Ten (10) μL of 0.5N NaOH were added and 10 μL 1 M MES, pH 5.8 were added to quench the enzymatic reaction.
A non-linear curve fit with the Hill model was applied to the inhibition-concentration data, and the 50% effective concentration (IC50) was calculated by the use of SAS software (Statistical Software System; SAS Institute, Inc. Cary, N.C.). […]
The NS2-NS5B-3′ non coding region was cloned by RT-PCR into the pCR®3 vector (Invitrogen) using RNA extracted from the serum of an HCV genotype 1b infected individual (provided by Dr. Bernard Willems, Hôpital St-Luc, Montréal, Québec, Canada). The NS3-NS4A DNA region was then subcloned by PCR into the pFastBac™ HTa baculovirus expression vector (Gibco/BRL). The vector sequence includes a region encoding a 28-residue N-terminal sequence which contains a hexahistidine tag. The Bac-to-Bac™ baculovirus expression system (Gibco/BRL) was used to produce the recombinant baculovirus. The full length mature NS3 and NS4A heterodimer protein (His-NS3-NS4AFL) was expressed by infecting 10^6 Sf21 cells/mL with the recombinant baculovirus at a multiplicity of infection of 0.1-0.2 at 27° C. The infected culture was harvested 48 to 64 h later by centrifugation at 4° C. The cell pellet was homogenized in 50 mM NaPO4, pH 7.5, 40% glycerol (w/v), 2 mM β-mercaptoethanol, in presence of a cocktail of protease inhibitors. His-NS3-NS4AFL was then extracted from the cell lysate with 1.5% NP-40, 0.5% Triton X-100, 0.5M NaCl, and a DNase treatment. After ultracentrifugation, the soluble extract was diluted 4-fold and bound on a Pharmacia Hi-Trap Ni-chelating column. […] The His-NS3-NS4AFL was stored at −80° C. in 50 mM sodium phosphate, pH 7.5, 10% (w/v) glycerol, 0.5 M NaCl, 0.25 M imidazole, 0.1% NP-40. It was thawed on ice and diluted just prior to use. The protease activity of His-NS3-NS4AFL was assayed in 50 mM Tris-HCl, pH 8.0, 0.25 M sodium citrate, 0.01% (w/v) n-dodecyl-β-D-maltoside, 1 mM TCEP. Five (5) μM of the internally quenched substrate anthranilyl-DDIVPAbu[C(O)—O]-AMY(3-NO2)TW-OH in presence of various concentrations of inhibitor were incubated with 1.5 nM of His-NS3-NS4AFL for 45 min at 23° C. […] The reaction was terminated with the addition of 1M MES, pH 5.8. Fluorescence of the N-terminal product was monitored on a Perkin-Elmer LS-50B fluorometer equipped with a 96-well plate reader (excitation wavelength: 325 nm; emission wavelength: 423 nm).
The following tables list compounds representative of the invention.

Chain of HCV NS3 protease (P26663 1027-1206, other chains not shown): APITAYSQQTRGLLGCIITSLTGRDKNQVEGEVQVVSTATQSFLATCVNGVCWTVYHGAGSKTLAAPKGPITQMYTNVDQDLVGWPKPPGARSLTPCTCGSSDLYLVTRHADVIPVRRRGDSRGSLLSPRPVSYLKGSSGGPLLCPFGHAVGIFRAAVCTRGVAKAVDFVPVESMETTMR

| SMILES | IC50 [nM] |
| --- | --- |
| CCC1CC1(NC(=O)C1CC(OCc2cccc3ccccc23)CN1C(=O)C(NC(=O)OC(C)(C)C)C1CCCCC1)C(=O)O (centres unmarked) [compound 301] | 7700 |
| CC[C@H]1C[C@]1(NC(=O)[C@@H]1C[C@@H](OCc2cccc3ccccc23)CN1C(=O)[C@@H](NC(=O)OCC(C)C)C(C)C)C(=O)O [compound 302] | 12500 |
| CC[C@H]1C[C@]1(NC(=O)[C@@H]1C[C@@H](OCc2cccc3ccccc23)CN1C(=O)[C@@H](NC(=O)OCC(C)C)C1CCCCC1)C(=O)O [compound 303] | 11000 |
| C=C[C@H]1C[C@]1(NC(=O)[C@@H]1C[C@@H](OCc2cccc3ccccc23)CN1C(=O)[C@@H](NC(=O)OC(C)(C)C)C1CCCCC1)C(=O)O [compound 305] | 3200 |
| C=C[C@H]1C[C@]1(NC(=O)[C@@H]1C[C@@H](Oc2ccnc3ccccc23)CN1C(=O)[C@@H](NC(=O)OC(C)(C)C)C1CCCCC1)C(=O)O [compound 306] | 800 |
| C=C[C@H]1C[C@]1(NC(=O)[C@@H]1CC(Oc2cc(-c3ccccc3)nc3ccc([N+](=O)[O-])cc23)CN1C(=O)[C@@H](NC(=O)OC(C)(C)C)C1CCCCC1)C(=O)O (some centres unmarked) [compound 307] | 270 |
| C=C[C@H]1C[C@]1(NC(=O)[C@@H]1C[C@@H](Oc2cccc3ccccc23)CN1C(=O)[C@@H](NC(=O)OC(C)(C)C)C1CCCCC1)C(=O)O [compound 308] | 1600 |
| C=C[C@H]1C[C@]1(NC(=O)[C@@H]1C[C@@H](Oc2ccc3ccccc3c2)CN1C(=O)[C@@H](NC(=O)OC(C)(C)C)C1CCCCC1)C(=O)O [compound 309] | 5000 |

same assay, conditions: Table 4

| SMILES | IC50 [nM] |
| --- | --- |
| COc1ccc2c(OC3C[C@@H](C(=O)NC4(C(=O)O)CCC4)N(C(=O)[C@@H](NC(=O)OC(C)(C)C)C(C)(C)C)C3)cc(-c3ccccc3)nc2c1 (some centres unmarked) [compound 403] | 132 |

same assay, conditions: Table 5

| SMILES | IC50 [nM] |
| --- | --- |
| C=CC1C[C@]1(NC(=O)[C@@H]1C[C@@H](Oc2ccnc3ccccc23)CN1C(=O)[C@@H](NC(=O)OC(C)(C)C)C(C)(C)C)C(=O)O (some centres unmarked) [compound 501] | 400 |
| C=CC1CC1(NC(=O)C1CC(Oc2ccnc3ccccc23)CN1C(=O)C(NC(=O)OC(C)(C)C)C(C)OC(C)(C)C)C(=O)O (centres unmarked) [compound 503] | 790 |
| C=CC1CC1(NC(=O)C1CC(Oc2ccnc3ccccc23)CN1C(=O)C(NC(=O)OC(C)(C)C)C(C)OC)C(=O)O (centres unmarked) [compound 505] | 790 |
| C=CC1CC1(NC(=O)C1CC(Oc2ccnc3ccccc23)CN1C(=O)C(NC(=O)OC(C)(C)C)C(C)OCc1ccccc1)C(=O)O (centres unmarked) [compound 506] | 1300 |
| C=CC1CC1(NC(=O)C1CC(Oc2ccnc3ccccc23)CN1C(=O)C(NC(=O)OC(C)(C)C)C(C)(C)SCNC(C)=O)C(=O)O (centres unmarked) [compound 507] | 980 |
| C=CC1CC1(NC(=O)C1CC(Oc2ccnc3ccccc23)CN1C(=O)C(NC(=O)OC(C)(C)C)C(C)(C)SCc1ccc(C)cc1)C(=O)O (centres unmarked) [compound 508] | 3100 |
| C=CC1CC1(NC(=O)C1CC(Oc2ccnc3ccccc23)CN1C(=O)C(NC(=O)OC(C)(C)C)C(C)CC)C(=O)O (centres unmarked) [compound 509] | 377 |
| C=CC1CC1(NC(=O)C1CC(Oc2ccnc3ccccc23)CN1C(=O)C(NC(=O)OC(C)(C)C)C(C)CC)C(=O)O (centres unmarked) [compound 510] | 255 |
| C=CC1CC1(NC(=O)C1CC(Oc2ccnc3ccccc23)CN1C(=O)C(NC(=O)OC(C)(C)C)C(O)C1CCCCC1)C(=O)O (centres unmarked) [compound 511] | 2100 |

same assay, conditions: Table 6

| SMILES | IC50 [nM] |
| --- | --- |
| C=CC1CC1(NC(=O)C1CC(Oc2cc(-c3ccccc3)nc3c(OC)c(OC)ccc23)CN1C(=O)C(NC(=O)OC(C)(C)C)C(C)(C)C)C(=O)O (centres unmarked) [compound 602] | 41 |
| C=CC1CC1(NC(=O)C1CC(Oc2cc(-c3ccccc3)nc3cc(CC)ccc23)CN1C(=O)C(NC(=O)OC(C)(C)C)C(C)C)C(=O)O (centres unmarked) [compound 603] | 195 |
| C=CC1CC1(NC(=O)C1CC(Oc2ccnc3cc(OC)ccc23)CN1C(=O)C(NC(=O)OC(C)(C)C)C(C)(C)C)C(=O)O (centres unmarked) [compound 604] | 73 |
| C=CC1CC1(NC(=O)C1CC(Oc2cc(-c3ccccc3)nc3cc(OC(C)C)ccc23)CN1C(=O)C(NC(=O)OC(C)(C)C)C(C)(C)C)C(=O)O (centres unmarked) [compound 605] | 195 |
| C=CC1CC1(NC(=O)C1CC(Oc2ccnc3cc(Cl)ccc23)CN1C(=O)C(NC(=O)OC(C)(C)C)C(C)(C)C)C(=O)O (centres unmarked) [compound 606] | 480 |
| C=CC1CC1(NC(=O)C1CC(Oc2ccnc3cc(Cl)ccc23)CN1C(=O)C(NC(=O)OC(C)(C)C)C(C)C)C(=O)O (centres unmarked) [compound 607] | 450 |
| C=CC1CC1(NC(=O)C1CC(Oc2ccnc3cc(Cl)ccc23)CN1C(=O)C(CC(C)C)NC(=O)OC(C)(C)C)C(=O)O (centres unmarked) [compound 608] | 1450 |
| C=CC1CC1(NC(=O)C1CC(Oc2cc(CN3CCOCC3)nc3ccccc23)CN1C(=O)C(NC(=O)OC(C)(C)C)C(C)(C)C)C(=O)O (centres unmarked) [compound 609] | 1700 |
| C=CC1CC1(NC(=O)C1CC(Oc2cc(Cl)nc3ccccc23)CN1C(=O)C(NC(=O)OC(C)(C)C)C(C)(C)C)C(=O)O (centres unmarked) [compound 610] | 250 |
| C=CC1CC1(NC(=O)C1CC(Oc2cc(-c3ccccc3)nc3cc(N(C)C)ccc23)CN1C(=O)C(NC(=O)OC(C)(C)C)C(C)(C)C)C(=O)O (centres unmarked) [compound 611] | 35 |
| C=CC1CC1(NC(=O)C1CC(Oc2cc(N3CCOCC3)nc3ccccc23)CN1C(=O)C(NC(=O)OC(C)(C)C)C(C)(C)C)C(=O)O (centres unmarked) [compound 612] | 278 |
| C=CC1CC1(NC(=O)C1CC(Oc2cc(N3CCCC3)nc3ccccc23)CN1C(=O)C(NC(=O)OC(C)(C)C)C(C)(C)C)C(=O)O (centres unmarked) [compound 613] | 1000 |
| C=CC1CC1(NC(=O)C1CC(Oc2cc(CN3CCCC3)nc3ccccc23)CN1C(=O)C(NC(=O)OC(C)(C)C)C(C)(C)C)C(=O)O (centres unmarked) [compound 614] | 2200 |
| C=CC1CC1(NC(=O)C1CC(Oc2ccnc3cc(N(C)C)ccc23)CN1C(=O)C(NC(=O)OC(C)(C)C)C(C)(C)C)C(=O)O (centres unmarked) [compound 615] | 160 |
| C=CC1CC1(NC(=O)C1CC(Oc2cc(N3CCCCC3)nc3ccccc23)CN1C(=O)C(NC(=O)OC(C)(C)C)C(C)(C)C)C(=O)O (centres unmarked) [compound 617] | 345 |
| C=CC1CC1(NC(=O)C1CC(Oc2cc(CN(C)C)nc3ccccc23)CN1C(=O)C(NC(=O)OC(C)(C)C)C(C)(C)C)C(=O)O (centres unmarked) [compound 618] | 2300 |
| C=CC1CC1(NC(=O)C1CC(Oc2cc(-c3csc(C)n3)nc3ccccc23)CN1C(=O)C(NC(=O)OC(C)(C)C)C(C)(C)C)C(=O)O (centres unmarked) [compound 621] | 58 |
| C=CC1CC1(NC(=O)C1CC(Oc2cc(OCC)nc3ccccc23)CN1C(=O)C(NC(=O)OC(C)(C)C)C(C)(C)C)C(=O)O (centres unmarked) [compound 622] | 160 |
| C=CC1CC1(NC(=O)C1CC(Oc2cc(OC)nc3ccccc23)CN1C(=O)C(NC(=O)OC(C)(C)C)C(C)(C)C)C(=O)O (centres unmarked) [compound 623] | 200 |
| C=CC1CC1(NC(=O)C1CC(Oc2cc(N(C)C)nc3ccccc23)CN1C(=O)C(NC(=O)OC(C)(C)C)C(C)(C)C)C(=O)O (centres unmarked) [compound 624] | 1300 |
| C=CC1CC1(NC(=O)C1CC(Oc2cc(-c3ccccc3)nc3cc(SC)ccc23)CN1C(=O)C(NC(=O)OC(C)(C)C)C(C)(C)C)C(=O)O (centres unmarked) [compound 625] | 160 |
| C=CC1CC1(NC(=O)C1CC(Oc2cc(-c3ccccc3)nc3cc(Br)ccc23)CN1C(=O)C(NC(=O)OC(C)(C)C)C(C)(C)C)C(=O)O (centres unmarked) [compound 626] | 240 |
| C=CC1CC1(NC(=O)C1CC(Oc2cc(-c3ccccc3)nc3cc(F)ccc23)CN1C(=O)C(NC(=O)OC(C)(C)C)C(C)(C)C)C(=O)O (centres unmarked) [compound 627] | 330 |
